Results published in PubChem BioAssay (NCI).
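Five compound concentrations were applied to cells in 96-well plates for 48 hours; endpoints were derived by simple linear interpolation of the resulting dose-response curve. The concentration for 50% growth inhibition is given as GI50. At the TGI there is no net growth.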

Experiments:
Test in all cases: NCI anticancer screen, dose series, 48 h; in the data active means GI50 below about 0.43 µM; inactive means the rest
[1] = system: SF-539 CNS
[2] = system: ACHN renal
[3] = system: OVCAR-4 ovarian
[4] = system: EKVX NSCLC
[5] = system: SK-MEL-28 melanoma
[6] = system: HCT-116 colon
[7] = system: NCI-H226 lung
[8] = system: SK-MEL-5 melanoma
[9] = system: HCC-2998 colon
[10] = system: LOX IMVI melanoma

C(=NCCN=Cc1cccc2ccccc12)c1cccc2ccccc12
> 100 µM: TGI [1] | TGI [2] | TGI [3] | TGI [4] | TGI [5] | TGI [6] | TGI [7] | TGI [8] | TGI [9]

CCCCCCCCCCCCCCCC(N)c1ccccc1 (stereo not drawn)
3.69 µM: TGI [7]
3.45 µM: TGI [3]
3.34 µM: TGI [2]
3.23 µM: TGI [8]
3.01 µM: TGI [4]
3.28 µM: TGI [9]
3.17 µM: TGI [1]
3 µM: TGI [10]
3.48 µM: TGI [5]
inactive: GI50 [1] 1690 nM | GI50 [2] 1.79 µM | GI50 [3] 1.67 µM | GI50 [4] 1590 nM | GI50 [5] 1.8 µM | GI50 [7] 1.91 µM | GI50 [8] 1.67 µM | GI50 [10] 1.52 µM | GI50 [9] 1.67 µM

COc1cc2c3c(n(CCCN4CCN(CCO)CC4)c(=O)c2cc1OC)-c1cc2c(cc1C3=O)OCO2
> 50.7 µM: TGI [3]
6.3 µM: TGI [1]
32.1 µM: TGI [5]
26 µM: TGI [8]
8.77 µM: TGI [10]
20.4 µM: TGI [9]
7.79 µM: TGI [6]
> 44.4 µM: TGI [2]
inactive: GI50 [1] 1460 nM | GI50 [2] 8.54 µM | GI50 [3] 15.9 µM | GI50 [5] 17.5 µM | GI50 [6] 1140 nM | GI50 [7] 7.49 µM | GI50 [8] 13 µM | GI50 [10] 3.72 µM | GI50 [9] 6.25 µM
28.4 µM: TGI [7]

NCCNc1ncnc2ccc(Cl)cc12
> 100 µM: TGI [2] | TGI [3] | TGI [4] | TGI [5] | TGI [6] | TGI [7] | TGI [8] | TGI [10]

Nc1ncnc2c1ncn2C1OC(C(=O)OCCO)C(O)C1O (stereo not drawn)
> 100 µM: TGI [1] | TGI [2] | TGI [3] | TGI [4] | TGI [5] | TGI [6] | TGI [7] | TGI [8] | TGI [10]

O=C(Nc1ccc(N2CCNCC2)cn1)c1[nH]ncc1Nc1ncnc2sc3c(c12)CCC3
67.2 µM: TGI [7]
5.77 µM: TGI [4]
2.18 µM: TGI [6]
36.2 µM: TGI [9]
inactive: GI50 [4] 1990 nM | GI50 [6] 542 nM | GI50 [7] 20 µM | GI50 [9] 14.1 µM

COc1ccc([Se]c2ccc(OC)cc2)cc1
> 100 µM: TGI [1] | TGI [2] | TGI [5] | TGI [6] | TGI [8] | TGI [10] | TGI [9]
93.5 µM: TGI [7]

C=C1CC(CC(=O)C(C)CC2CC(=C)C(=O)O2)OC1=O (stereo not drawn)
35.1 µM: TGI [2]
37.7 µM: TGI [1]
30.5 µM: TGI [3]
> 100 µM: TGI [4] | TGI [8] | TGI [9]
29.2 µM: TGI [10]
30.4 µM: TGI [5]
24.6 µM: TGI [6]

CCOc1cc[n+](C(=C=[N-])C#N)cc1
> 100 µM: TGI [1] | TGI [3] | TGI [4] | TGI [6] | TGI [7] | TGI [8] | TGI [10] | TGI [9]

Nc1cc(N)c2nc(-c3ccccc3)c(Oc3ccc(Cl)c(Cl)c3)nc2c1
34 µM: TGI [10]
49.5 µM: TGI [7]
48.3 µM: TGI [6]
64.2 µM: TGI [5]
8.35 µM: TGI [4]
inactive: GI50 [1] 13500 nM | GI50 [3] 33 µM | GI50 [4] 2160 nM | GI50 [5] 21.5 µM | GI50 [6] 15700 nM | GI50 [7] 15.1 µM | GI50 [8] 9.77 µM | GI50 [10] 16.1 µM
> 100 µM: TGI [3]
28.7 µM: TGI [8]
29.5 µM: TGI [1]

CCN(CC)c1ccc(N=C2C=CC(=C(C#N)C#N)c3ccccc32)c(C)c1
10.9 µM: TGI [2]
18.4 µM: TGI [4]
5.63 µM: TGI [3]
2.92 µM: TGI [8]
5.8 µM: TGI [6]
4.75 µM: TGI [10]
4.22 µM: TGI [5]

C[C@H](c1ccc(Cl)cc1[N+](=O)[O-])N1C(=O)c2cc(I)ccc2NC(=O)[C@H]1c1ccc(Cl)cc1
inactive: GI50 [1] > 100000 nM | GI50 [2] > 100 µM | GI50 [3] 7.08 µM | GI50 [4] 4980 nM | GI50 [5] > 100 µM | GI50 [6] 5780 nM | GI50 [7] > 100 µM | GI50 [8] > 100 µM | GI50 [10] > 100 µM
> 100 µM: TGI [1] | TGI [2] | TGI [3] | TGI [4] | TGI [5] | TGI [6] | TGI [7] | TGI [8] | TGI [10]

COc1cc[nH]c1/C=C1\C(=O)Nc2ccc([N+](=O)[O-])c(N3CC[C@@H](O)C3)c21
1.69 µM: TGI [7]
2.14 µM: TGI [3]
1.2 µM: TGI [5]
0.847 µM: TGI [8]
0.386 µM: TGI [1]
1.41 µM: TGI [10]
2 µM: TGI [2] | TGI [9]
25 µM: TGI [6]
inactive: GI50 [3] 0.488 µM | GI50 [9] 0.544 µM
active: GI50 [1] 102 nM | GI50 [2] 0.0804 µM | GI50 [5] 0.277 µM | GI50 [6] 75.9 nM | GI50 [7] 0.169 µM | GI50 [8] 0.181 µM | GI50 [10] 0.0923 µM

NC(C(=O)O)c1ccc(C(=O)O)cc1 (stereo not drawn)
> 100 µM: TGI [1] | TGI [2] | TGI [3] | TGI [4] | TGI [5] | TGI [7] | TGI [8] | TGI [10] | TGI [9]

O=C1OC(=O)C2C1C1C(c3ccccc3)=C(c3ccccc3)C2(O)C2C(=O)OC(=O)C12 (stereo not drawn)
> 100 µM: TGI [2] | TGI [3] | TGI [4] | TGI [5] | TGI [6] | TGI [7] | TGI [9]

O=[N+]([O-])c1ccc2nc(=S)[nH]n2c1
> 100 µM: TGI [1] | TGI [2] | TGI [3] | TGI [4] | TGI [6] | TGI [7] | TGI [8] | TGI [10] | TGI [9]

N#CC1([N+](=O)[O-])C=C1c1ccccc1 (stereo not drawn)
> 100 µM: TGI [1] | TGI [2] | TGI [3] | TGI [4] | TGI [6] | TGI [7] | TGI [8] | TGI [10]

Cc1c(C(=O)Nc2ccc(Cl)cc2)nc(N)nc1-c1cccc(Cl)c1
> 100 µM: TGI [1] | TGI [2] | TGI [3] | TGI [4] | TGI [5] | TGI [6] | TGI [7] | TGI [8] | TGI [9]

CC(=O)CC(=O)ON(C)C(=O)Cc1ccccc1
> 100 µM: TGI [1] | TGI [2] | TGI [3] | TGI [5] | TGI [6] | TGI [7] | TGI [8] | TGI [10] | TGI [9]

CC1(C)N=C(N)N=C(N)N1c1ccc(CCC(=O)Nc2cccc(S(=O)(=O)F)c2)cc1
inactive: GI50 [1] 5650 nM | GI50 [2] 52.5 µM | GI50 [3] > 100 µM | GI50 [4] > 100000 nM | GI50 [5] 81.1 µM | GI50 [6] 3960 nM | GI50 [7] > 100 µM | GI50 [8] 4.83 µM | GI50 [10] 3.54 µM
> 100 µM: TGI [1] | TGI [2] | TGI [3] | TGI [4] | TGI [5] | TGI [6] | TGI [7] | TGI [8] | TGI [10]
